In patent US9775902B2, “Compounds and methods for treatment of stroke” (FIBROGEN, INC, priority 2006, dated 2017):

Key:
erythropoietin (EPO) = experiment: EPO expression in Kelly neuroblastoma cells; type: cell-based; conditions: for EPO: conditioned media after overnight incubation
Summary of the method: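 Kelly neuroblastoma cells treated overnight with compound, 1% DMSO as negative control. EPO and VEGF secreted into conditioned media measured by QUANTIKINE immunoassay.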

erythropoietin = experiment: Plasma EPO in mice after intravenous injection; type: in vivo, Swiss Webster mice; conditions: mouse plasma, 20 mg/kg i.v., four hours after injection; for fold induction at 20 mg/kg: iv, 4 h, read-out: EPO Fold Increase; for EPO: mouse EPO ELISA kit (**)
Summary of the method: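 Male Swiss Webster mice (29-34 g) received 20 mg/kg compound or vehicle by tail-vein injection in 5% dextrose with equimolar NaOH or meglumine. Plasma was collected 4 h later, and EPO and VEGF were measured by ELISA.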

[1] = test system: Wistar rats, transient occlusion of the middle cerebral artery; experiment: Rat model of transient middle cerebral artery occlusion (tMCAO): infarct volume and edema at 48 hours; type: in vivo
From the text: The effect of compounds of the present invention on infarct volume and edema was examined in an animal model of ischemic stroke. For these studies, male Wistar rats (320 g) were subjected to transient occlusion of the middle cerebral artery. Rats were anesthetized with 3% isoflurane in oxygen. Aseptic technique was used for all procedures during these studies. The surgical site was clipped and cleaned with alcohol and surgical scrub. Each animal was placed on a warm water heating pad to maintain body temperature. A paramedian incision was made on the neck over the carotid artery. The tissue was bluntly dissected away to reveal the carotid artery and the carotid artery bifurcation. Sutures were placed around the proximal portion of the common carotid and the external carotid arteries and were then tied off. An incision was made in the common carotid, distal to the ligation and a pre-prepared filament (3-0 monofilament suture or like material) was placed in the carotid and advanced into the internal carotid artery. The filament was advanced approximately 20 millimeters past the carotid bifurcation until slight resistance was felt as it wedged inside the middle cerebral artery (MCA). Care was taken to not rupture the artery upon insertion of the filament. The filament was tied in place and the skin incision closed. At this time isoflurane was discontinued and the animals were allowed to awaken.
One hour after surgery, the success of MCA occlusion was assessed using the Bederson scale, as previously described. (See Bederson et al., (1986) Stroke, 17:1304-1308.) Sixty minutes after occlusion, the animals were re-anesthetized for reperfusion. The skin incision was reopened and the filament was carefully withdrawn from the MCA but not completely removed. Body temperature was taken every 15 minutes throughout the study to maintain normothermia. Animals that have undergone the MCA occlusion procedure may have difficulty in thermoregulation for a few hours after surgery. Animals were placed in a cooling or heating box as determined by their body temperature. Body temperature was maintained at 37.5° C.
Various compounds of the present invention were administered by oral gavage (p.o.) at reperfusion or at reperfusion and again at 24 hours after reperfusion in 0.5% CMC and 0.1% Polysorbate 80 at various doses (see Table 10 below). Forty-eight hours after MCA occlusion animals were euthanized with CO2 and their brains removed. After removal, the brain was sliced into 7 coronal sections, 2 mm thick. The sections were placed rostral side down in a petri dish and stained with 1% Triphenyl tetrazolium chloride for 20 minutes at 37° C. for determination of infarct volume. Brain sections were then digitally photographed and analyzed for changes in infarct volume and extent of edema. Infarct volumes were determined by measuring the infarcted (i.e., non-stained) areas of each brain section and multiplying this value by the section thickness. Extent of edema was determined by the net increase in volume of the ipsilateral cortex compared to that of the contralateral cortex of brain sections.

[2] = p.o. 6 mg/kg at reperfusion, 48 hours after MCA occlusion
[3] = 1 Dose 60 mg/kg p.o. at reperfusion
[4] = 2 Doses 60 mg/kg p.o., at reperfusion and 24 hours later
[5] = p.o. 60 mg/kg at reperfusion, 48 hours after MCA occlusion

Row | Structure (SMILES) | EPO Fold Increase (erythropoietin (EPO)) | EPO (erythropoietin (EPO)) [mIU/ml] | fold induction at 20 mg/kg (erythropoietin) | EPO (erythropoietin) [pg/mL] | Percent Reduction in Edema [1, 2] [%] | Percent Reduction in Infarct Volume [1, 2] [%] | Percent Reduction in Edema [1, 3] [%] | Percent Reduction in Infarct Volume [1, 3] [%] | Percent Reduction in Edema [1, 4] [%] | Percent Reduction in Infarct Volume [1, 4] [%] | Percent Reduction in Edema [1, 5] [%] | Percent Reduction in Infarct Volume [1, 5] [%]
1 | Cc1cccc(C)c1Oc1ccc2c(C#N)nc(C(=O)NCC(=O)O)c(O)c2c1 [Compound AL, {[1-Cyano-6-(2,6-dimethyl-phenoxy)-4-hydroxy-isoquinoline-3-carbonyl]-amino}-acetic acid] | 11.31 | 213.8 | 188 | 22514 | 12 | 51 | – | – | – | – | – | –
2 | N#Cc1nc(C(=O)NCC(=O)O)c(O)c2c(Oc3ccc(F)cc3)cccc12 [Compound AS, {[1-Cyano-5-(4-fluoro-phenoxy)-4-hydroxy-isoquinoline-3-carbonyl]-amino}-acetic acid] | 11.72 | 221.5 | 102 | 49305 | 32 | 58 | – | – | – | – | – | –
3 | COc1ccc(Oc2ccc3c(O)c(C(=O)NCC(=O)O)ncc3c2)cc1 [Compound F, {[4-Hydroxy-7-(4-methoxy-phenoxy)-isoquinoline-3-carbonyl]-amino}-acetic acid] | 10.5 | 65 | 254 | 2283 | – | – | 28 | 42 | 39 | 70 | 39 | 70
